Assay results reported in patent US4731363A, “Thromboxane synthase inhibitors as insulin lowering agents and antiobesity agents” (priority 1986, dated 1988).

Columns and labels:
[1] = target: TXA2 Synthase; test: TXA2 synthase IC50 as listed in Table I (enzyme source not stated); format: biochemical
Procedure: (§1) Determination of Inhibition of Thromboxane Synthase Activity Isolation of Human Platelet Microsomes
(§2) Assay for Thromboxane Synthase
(§3) To a 12×75 mm tube containing [1-^14 C] PGH2 (2 μg, 0.01 μCi or 0.05 μCi) and inhibitor (1 mM final assay concentration, in 10 μl of ethanol) in 225 μl of phosphate buffer (0.1M, pH 7.5), was added to an aliquot of guinea pig lung microsomes (25 μl, containing 400 μg protein) or an aliquot of human platelet microsomes (25 μl, containing .congruent.[…] protein). The solution was incubated in a 22° water bath for 2 min.; ether (1 ml) and citric acid (25 μMoles) were added, and the tube plunged into an acetone-dry ice bath. The ether extract was transferred to a 1.0 ml Reacti-vial, and the volume reduced under nitrogen to .congruent.50 μl.
(§4) The extract was applied to an I.T.L.C., type SG, glass fiber sheet (Gelman Instrument Co., Ann Arbor, Mich.) and developed in isooctane; methyl ethyl ketone: acetic acid (100:19:1 or 100:9:1) (19). The sheets were air dried and scanned using a Berthold LB 2760 Radiochromatographic Scanner. In certain cases, based on the radiochromatographic profile obtained, the sheets were cut, the appropriate regions placed in scintillation vials, 10 ml of LSC cocktail (Yorktown Research, S. Hackensack, NJ) added, and the relative cpm determined.

[2] = tested on: male Zucker rats; test: Carcass weight and carcass lipid and protein levels in male Zucker rats; format: in vivo, rat; settings: 29 days; for Carcass Protein % of carcass weight / Carcass Protein total / Carcass Lipids % of carcass weight / Carcass Lipids total / Carcass Weight: mean ± S.E.
Procedure: In one study, carcass composition was determined. After treatment, rats were sacrificed by decapitation, and livers and blood were removed. Carcasses were weighed, saponified in alcoholic potassium hydroxide, acidified and extracted with petroleum ether. The petroleum ether supernatants were transferred to preweighed glass vials, evaporated immediately to dryness under nitrogen and reweighed. Total carcass data are expressed in grams and percentages of carcass weight. An aliquot of saponified carcass extract was neutralized, and total carcass nitrogen was determined using Kjeldahl procedure. Carcass protein data are expressed in grams and percentages of carcass weight.
^a Four month old male Zucker rats (four per group) were fed G70:1%
corn oil diet ad libitum for 24 days prior to treatment.
1[4(1H--imidazol1-yl)phenyl]ethanone was then mixed into the G70:1% corn
oil diet and rats were fed ad libitum for 29 days. On day 29 rats were
killed by decapitation and the carcasses (minus liver and blood) were
analyzed for total lipid and protein. Each value is the mean ± S.E.
^b Amount of 1[4(1H--imidazol1-yl)phenyl]ethanone ingested per day pe
^c Values in parentheses indicate percent of control.

[3] = target: T1, thromboxane synthase (Human Platelet Microsomes) (Homo sapiens, UniProt P24557); test: Thromboxane synthase inhibition, human platelet microsomes; format: biochemical; settings: enzyme source H = Human Platelet Microsomes; read-out: IC50
T1 construct: Platelets were obtained from 320 ml of whole blood and resuspended in 5.0 ml of Krebs-Hensleit buffer; from tissue; host or cells: human platelets (microsomes, 110,000 g pellet)
T1 sequence (P24557 1-533): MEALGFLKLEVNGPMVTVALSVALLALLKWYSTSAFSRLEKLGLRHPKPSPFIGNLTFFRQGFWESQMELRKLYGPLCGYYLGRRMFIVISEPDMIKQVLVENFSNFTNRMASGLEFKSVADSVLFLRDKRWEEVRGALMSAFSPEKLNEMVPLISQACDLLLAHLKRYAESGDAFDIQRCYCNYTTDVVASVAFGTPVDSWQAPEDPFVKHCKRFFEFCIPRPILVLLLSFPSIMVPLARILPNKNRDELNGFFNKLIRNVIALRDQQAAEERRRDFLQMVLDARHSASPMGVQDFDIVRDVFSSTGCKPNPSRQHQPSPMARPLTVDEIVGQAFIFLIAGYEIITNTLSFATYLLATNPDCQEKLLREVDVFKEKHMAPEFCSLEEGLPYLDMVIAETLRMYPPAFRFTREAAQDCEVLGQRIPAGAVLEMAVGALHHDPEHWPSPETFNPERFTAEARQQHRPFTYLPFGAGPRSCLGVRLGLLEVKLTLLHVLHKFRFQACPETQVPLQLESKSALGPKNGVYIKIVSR
Procedure: In said assay procedure, microsomes from guinea pig lung or human platelets are added to an endoperoxide intermediate in prostaglandin biosynthesis and the inhibitor in phosphate buffer solution followed by incubation, extraction and determination of the extent of thromboxane synthase inhibition by TLC with radiochromatographic profile analysis.
as §1
Platelets were obtained from 320 ml of whole blood and resuspended in 5.0 ml of Krebs-Hensleit buffer (CA^+2 free). After three consecutive freeze-thawing cycles, homogenization and centrifugation at 12,000 g for 45 min., the 12,000 supernatant was recentrifuged at 110,000 g for 60 min. The resultant pellet was resuspended in phosphate buffer (0.5 ml, 0.1M, pH 7.5) and stored at -70° until use.
Low specific activity PGH2 (3.3 μCi/μmole) was obtained from Dr. W. E. M. Lands of the University of Michigan. PGH2 of higher specific activity (16.0 μCi/μmole) was purchased from Ran Biochemicals, Tel-Aviv, Israel.
The inhibitors tested were prepared as solutions (1-10 mg/ml) in 95% ethanol.
as §2, §3, §4

[4] = Lean, 98 mg per day per kg in diet
[5] = Lean, 98 mg per day per kg in diet, P ≤ 0.05
[6] = Obese, 87 mg per day per kg in diet

In the case of CC(=O)c1ccc(-n2ccnc2)cc1 [1-[4-(1H--imidazol-1-yl)phenyl]ethanone, 1-[4-(1H-imidazol-1-yl)phenyl]ethanone], the IC50 [1] is reported as 10 µM, the “Carcass Lipids % of carcass weight, percent of control” value [2, 4] is reported as 60% of control and the “Carcass Lipids total, percent of control” value [2, 4] is reported as 50% of control. For the same compound, the “Carcass Protein % of carcass weight, percent of control” value [2, 4] was 111% of control, the “Carcass Protein total, percent of control” value [2, 4] was 87% of control and the “Carcass Weight, percent of control” value [2, 4] was 84% of control. For the same compound, the “Carcass Protein % of carcass weight” value [2, 4] was 21 ± 2 % of carcass weight, the “Carcass Protein total” value [2, 4] was 75 ± 5 g and the “Carcass Lipids % of carcass weight” value [2, 5] was 8 ± 1 % of carcass weight. The “Carcass Lipids total” value [2, 5] was 29 ± 5 g, the “Carcass Weight” value [2, 5] was 361 ± 27 g and the “Carcass Lipids % of carcass weight, percent of control” value [2, 6] was 104% of control. For the same compound, the “Carcass Lipids total, percent of control” value [2, 6] was 86% of control, the “Carcass Protein % of carcass weight, percent of control” value [2, 6] was 131% of control and the “Carcass Protein total, percent of control” value [2, 6] was 109% of control. For the same compound, the “Carcass Weight, percent of control” value [2, 6] was 83% of control, the “Carcass Lipids % of carcass weight” value [2, 6] was 49 ± 1 % of carcass weight and the “Carcass Lipids total” value [2, 6] was 225 ± 6 g. The “Carcass Protein % of carcass weight” value [2, 6] was 18 ± 2 % of carcass weight, the “Carcass Protein total” value [2, 6] was 81 ± 4 g and the “Carcass Weight” value ([2]; Obese, 87 mg per day per kg in diet, P ≤ 0.05) was 460 ± 28 g. For the same compound, the IC50 [3] was 1 to 10 µM.
